Test results published in patent publication US20090306227A1, “TABLET FOR REMOVING TONGUE COATING” (priority 2005, published 2009).

Assay: Solubility of saccharides in water at 37° C.
Type: physicochemical
Settings: for Used Saccharide (Solubility at 37° C. (weight %)): value in parentheses under the saccharide name; for Solubility in water at 37° C.: unit from the definition, the table prints none
Procedure: The solubility can be determined by a method well-known to those skilled in the art. For example, solubility (% by weight) can be determined as follows. A solute is dissolved gradually in water of weight W1 at 37° C. When the largest amount of the solute is dissolved in the water, the weight of the solution is W2. The weight of the dissolved solute W3 (=W2−W1) is divided by the weight of the solution W2, and multiplied by 100 (i.e., converted to a percentage).

Used Saccharide (Solubility at 37° C. (weight %)) | Solubility in water at 37° C. [% by weight] | Compound
(40) weight % | 40 | OC[C@H]1O[C@H](OC[C@H]2OC(O)(CO)[C@@H](O)[C@@H]2O)[C@H](O)[C@@H](O)[C@@H]1O (stereo partly shown) [Palatinose]
(68) weight % | 68 | OC[C@H]1O[C@@](CO)(O[C@H]2O[C@H](CO)[C@@H](O)[C@H](O)[C@H]2O)[C@@H](O)[C@@H]1O [Sucrose]
(74) weight % | 74 | OC[C@@H](O)[C@@H](O)[C@H](O)[C@@H](O)CO [Sorbitol]
(72) weight % | 72 | OC[C@@H](O)[C@H](O)[C@@H](O)CO [Xylitol]
(37) weight % | 37 | Palatinit
(52) weight % | 52 | OC[C@H]1O[C@H](O[C@H]2O[C@H](CO)[C@@H](O)[C@H](O)[C@H]2O)[C@H](O)[C@@H](O)[C@@H]1O [Trehalose]

Continued, compound first:

Compound | Used Saccharide (Solubility at 37° C. (weight %)) | Solubility in water at 37° C. [% by weight]
OC[C@@H](O)[C@@H](O)[C@H](O)[C@H](O)CO [Mannitol] | (23) weight % | 23
OC[C@@H](O)[C@@H](O[C@@H]1O[C@H](CO)[C@H](O)[C@H](O)[C@H]1O)[C@H](O)[C@@H](O)CO [Lactitol] | (70) weight % | 70
O=C(CO)[C@@H](O)[C@H](O)[C@H](O)CO [Fructose] | (84) weight % | 84
OC[C@@H](O)[C@@H](O[C@H]1O[C@H](CO)[C@@H](O)[C@H](O)[C@H]1O)[C@H](O)[C@@H](O)CO [Maltitol] | (63) weight % | 63
OC[C@@H](O)[C@@H](O)CO [Erythritol] | (44) weight % | 44
